Earlier results in US8481483B2, “Cyclosporin analogues” (priority 2009, dated 2013).

Assays:
[1] = system: hepatitis C virus replication; settings: Antiviral Research 65(3):A41 (2005)
[2] = target: cyclophilin A (Homo sapiens, UniProt P62937)
Sequence of cyclophilin A (P62937 whole entry, species assumed): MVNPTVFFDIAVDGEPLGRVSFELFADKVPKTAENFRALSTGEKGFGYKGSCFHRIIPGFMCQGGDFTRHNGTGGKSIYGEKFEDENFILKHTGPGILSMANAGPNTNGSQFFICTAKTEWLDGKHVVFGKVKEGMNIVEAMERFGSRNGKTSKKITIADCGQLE

## C/C=C/C[C@@H](C)[C@@H](O)[C@H]1C(=O)N[C@@H](CC)C(=O)N(C)[C@H](C)C(=O)N(CC)[C@@H](C(C)C)C(=O)N[C@@H](C(C)C)C(=O)N(C)[C@@H](CC(C)C)C(=O)N[C@@H](C)C(=O)N[C@H](C)C(=O)N(C)[C@@H](CC(C)C)C(=O)N(C)[C@@H](CC(C)C)C(=O)N(C)[C@@H](C(C)C)C(=O)N1C [DEBIO-025]
[1]
  inhibition of hepatitis C virus replication: potent and selective inhibition
[2]
  binding affinity for cyclophilin A: potent binding affinity
